Laboratory results taken from paper PMC10599620, “Structure of a diatom photosystem II supercomplex containing a member of Lhcx family and dimeric FCPII” (Science Advances, 2023).

B1: Tp-Lhcf7 (natural protein)
chain: FENEPGVIAPTGFFDPLGFTDDIDQEKFDQYRTAELKHGRVAQLAVIGYIVPEIFRWGFDIAPGVACADVPNGVAAIDAIPALGWAQIIFAIGAVDVRGWFGNFDIGKPDLKGKDEERALQELQHGRLAMLAILELLRHDSQNLVKPGFDGLDNLITGLPFLY
modifications: binds 12-13 Chl a, 2 fucoxanthins, 2 diadinoxanthins; homodimer in the supercomplex; limits are the residues modelled in 8IWH (Table S4) / binds 12-13 Chl a, 2 fucoxanthins, 2 diadinoxanthins …

Assays:
Tp-Lhcf11 = target: T1, Tp-Lhcf11 (Thalassiosira pseudonana, UniProt B8BVI1); experiment: cryo-EM structure of native supercomplex, local map […] A; assay type: binding; details: site 305
T1 construct: native; Lhcf6-Lhcf11 heterodimer within purified PSII-FCPII supercomplex; with Fucoxanthin chlorophyll a/c light-harvesting protein Lhcf6
T1 sequence (B8BVI1 31-196): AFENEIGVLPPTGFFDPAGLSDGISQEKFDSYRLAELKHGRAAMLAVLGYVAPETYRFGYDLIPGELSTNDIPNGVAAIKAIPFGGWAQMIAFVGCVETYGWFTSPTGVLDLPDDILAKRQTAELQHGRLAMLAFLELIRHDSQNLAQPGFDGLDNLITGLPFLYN

Tp-Lhcf7 homodimer = target: T2, Tp-Lhcf7 homodimer (Thalassiosira pseudonana, UniProt B8BX93); experiment: cryo-EM structure of native supercomplex, […] A; assay type: binding; details: sites 301 and 302
T2 construct: native FCPII homodimer (Lhcf7_1, Lhcf7_2) within purified PSII-FCPII supercomplex
T2 sequence (B8BX93 31-194 limits assumed): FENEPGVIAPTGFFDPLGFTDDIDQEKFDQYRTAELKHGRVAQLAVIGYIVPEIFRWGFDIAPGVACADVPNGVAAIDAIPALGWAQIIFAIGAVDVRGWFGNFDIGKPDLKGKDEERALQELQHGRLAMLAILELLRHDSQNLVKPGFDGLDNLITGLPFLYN

Tp-Lhcf7 = target: T3, Tp-Lhcf7 (Thalassiosira pseudonana); experiment: cryo-EM structure; native PSII-FCPII supercomplex co-purified from T. pseudonana (cells grown under low light), in 50 mM Mes-NaOH pH 6.5, 10 mM NaCl, 5 mM CaCl2, 0.03% alpha-DDM, 2 mg Chl/ml; overall map 2.68 A, local map of the peripheral FCPII 3.19 A; details: both partners purified
T3 chain: B1 chain

Molecule	cryo-EM structure of native supercomplex, local map 3.19 A (Tp-Lhcf11)	cryo-EM structure of native supercomplex, 2.68 A (Tp-Lhcf7 homodimer)	stoichiometry N (Tp-Lhcf7)
CC(=O)O[C@H]1CC(C)(C)C(=C=C/C(C)=C/C=C/C(C)=C/C=C/C=C(C)/C=C/C=C(\C)C(=O)C[C@@]23O[C@]2(C)C[C@@H](O)CC3(C)C)[C@](C)(O)C1 [Fx]	two changes of pigment species at Chl c403 and Fx305 sites	There are two Fxs, Fx301 and Fx302, in Tp-Lhcf7	–
B1	–	–	2
